Measured values as given in US4520026A, “Indolizine derivatives and use as cardiovascular agents” (S. A. Labaz N.V., priority 1982, dated 1985).

Assays:
[1] = tested on: epinephrine-accelerated heart rate (anti-β effect); assay: Antiadrenergic effect: anti-β effect (reduction of epinephrine-accelerated heart rate); assay type: in vivo; conditions: dog; for inhibition in vivo at 7.5 mg/kg: dose 7.5 mg/kg i.v.
Procedure: (§1) The purpose of this test was to determine the capacity of the compounds under study to reduce epinephrine-increased blood-pressure (anti-α effect) and epinephrine-accelerated heart rate (anti-β effect) in the dog previously anaesthetized with pentobarbital and atropinized.
(§2) For each dog, the dose of epinephrine was first determined which provoked a reproductible increase by about 100 mm. Hg in the arterial pressure (between 5 and 10 μg/kg). After that, the dose of epinephrine so determined was administered followed by a dose by intravenous route of the compound to be studied. The percentage of reduction of the hypertension provoked by the compound under study in comparison with the hypertension previously obtained (about 100 mm. Hg) was then registered.
(§3) The percentage of reduction of the epinephrine-induced acceleration of heart-rate produced by the compound under study in comparison with the tachycardia previously measured (about 70 beats) was then registered. In both cases, the results were expressed as follows: […]
(§4) + for a <50%-reduction of the increase in pressure or cardiac frequency
(§5) ++ for a ≥50%-reduction of the increase in pressure or cardiac frequency
(§6) +++ for a subtotal reduction of the increase in pressure or cardiac frequency

[2] = tested on: epinephrine-increased blood-pressure (anti-α effect); assay: Antiadrenergic effect: anti-α effect (reduction of epinephrine-increased blood-pressure); assay type: in vivo; conditions: dog; for inhibition in vivo at 7.5 mg/kg: dose 7.5 mg/kg i.v.
Procedure: as §1, §2, §3, §4, §5, §6

[3] = Canis lupus familiaris, iv, dose 10 mg/kg i.v.
[4] = Canis lupus familiaris, iv, dose 7.8 mg/kg i.v.
[5] = Canis lupus familiaris, iv, dose 5 mg/kg i.v.
[6] = Canis lupus familiaris, iv, dose 7 mg/kg i.v.

With `CCCc1c(Br)c2ccccn2c1C(=O)c1cc(Br)c(OCCCN(CCC)CCC)c(Br)c1` [Br/Br/Br/n-C3H7/n-C3H7/3, 1-Bromo-2-n-propyl-3-[4-(3-di-n-propylaminopropyl)-oxy-3,5-dibromo-benzoyl]-indolizine] the Anti-β effect ([1]; dose 10 mg/kg i.v.) was “+++” and the Anti-α effect ([2]; dose 10 mg/kg i.v.) was “+++”.

In the case of `CCCCN(CCCC)CCCOc1ccc(C(=O)c2c(-c3ccc(F)cc3)c(Br)c3ccccn23)cc1Br` [Br/Br/H/drawing 23/n-C4H9/3], the inhibition in vivo at 10 mg/kg [1, 3] is reported as greater than 50% and the Anti-α effect ([2]; dose 10 mg/kg i.v.) is reported as “+++”.

Work on `CCCN(CCC)CCCOc1c(Cl)cc(C(=O)c2c(-c3ccccc3)c(Br)c3ccccn23)cc1Cl` [Br/Cl/Cl/drawing 39/n-C3H7/3, 1-Bromo-2-phenyl-3-[4-(3-di-n-propylaminopropyl)-oxy-3,5-dichloro-benzoyl]-indolizine] yielded an inhibition in vivo at 10 mg/kg [1, 3] greater than 50% and an inhibition in vivo at 10 mg/kg [2, 3] greater than 50%.

Compound `CCCCN(CCCC)CCCOc1c(Cl)cc(C(=O)c2c(-c3ccccc3)c(Br)c3ccccn23)cc1Cl` [Br/Cl/Cl/drawing 40/n-C4H9/3, 1-Bromo-2-phenyl-3-[4-(3-di-n-butylaminopropyl)-oxy-3,5-dichloro-benzoyl]-indolizine] has an inhibition in vivo at 10 mg/kg [1, 3] greater than 50% and an inhibition in vivo at 10 mg/kg [2, 3] greater than 50%.

Compound `CCCN(CCC)CCCOc1ccc(C(=O)c2c(CC)c(Br)c3ccccn23)cc1Cl` [Br/Cl/H/C2H5/n-C3H7/3, 1-Bromo-2-ethyl-3-[4-(3-di-n-propylaminopropyl)-oxy-3-chloro-benzoyl]-indolizine] has an inhibition in vivo at 7.8 mg/kg [1, 4] greater than 50% and an inhibition in vivo at 7.8 mg/kg [2, 4] greater than 50%.

In the case of `CCCCN(CCCC)CCCOc1ccc(C(=O)c2c(CC)c(Br)c3ccccn23)cc1Cl` [Br/Cl/H/C2H5/n-C4H9/3, 1-Bromo-2-ethyl-3-[4-(3-di-n-butylaminopropyl)-oxy-3-chloro-benzoyl]-indolizine], the Anti-β effect ([1]; dose 10 mg/kg i.v.) is reported as “+++” and the Anti-α effect ([2]; dose 10 mg/kg i.v.) is reported as “+++”.

In the case of `CCCCN(CCCC)CCCOc1ccc(C(=O)c2c(-c3ccccc3)c(Br)c3ccccn23)cc1Cl` [Br/Cl/H/drawing 26/n-C4H9/3], the Anti-β effect ([1]; dose 10 mg/kg i.v.) is reported as “+++” and the inhibition in vivo at 10 mg/kg [2, 3] is reported as greater than 50%.

For `CCCN(CCC)CCCOc1ccc(C(=O)c2c(-c3ccc(Br)cc3)c(Br)c3ccccn23)cc1Cl` [Br/Cl/H/drawing 27/n-C3H7/3], the inhibition in vivo at 10 mg/kg [1, 3] was greater than 50% and the inhibition in vivo at 10 mg/kg [2, 3] was greater than 50%.

Compound `CCCCN(CCCC)CCCOc1ccc(C(=O)c2c(-c3ccc(Cl)cc3)c(Br)c3ccccn23)cc1Cl` [Br/Cl/H/drawing 28/n-C4H9/3] has an inhibition in vivo at 10 mg/kg [1, 3] greater than 50% and an inhibition in vivo at 10 mg/kg [2, 3] greater than 50%.

`CCCN(CCC)CCCOc1ccc(C(=O)c2c(-c3ccc(Cl)cc3)c(Br)c3ccccn23)cc1Cl` [Br/Cl/H/drawing 30/n-C3H7/3] was tested, and the inhibition in vivo at 10 mg/kg [1, 3] was greater than 50% and the Anti-α effect ([2]; dose 10 mg/kg i.v.) was “+++”.

In the case of `CCCN(CCC)CCCOc1ccc(C(=O)c2c(-c3cccc(Br)c3)c(Br)c3ccccn23)cc1Cl` [Br/Cl/H/drawing 32/n-C3H7/3], the Anti-β effect ([1]; dose 10 mg/kg i.v.) is reported as “+++” and the Anti-α effect ([2]; dose 10 mg/kg i.v.) is reported as “+++”.

`CCCCN(CCCC)CCCOc1ccc(C(=O)c2c(CC)c(Br)c3ccccn23)cc1` [Br/H/H/C2H5/n-C4H9/3, 1-Bromo-2-ethyl-3-[4-(3-di-n-butylaminopropyl)-oxy-benzoyl]-indolizine] was tested, and the Anti-β effect ([1]; dose 6 mg/kg i.v.) was “+++” and the Anti-α effect ([2]; dose 6 mg/kg i.v.) was “+++”.

For `CCCCN(CCCC)CCCOc1ccc(C(=O)c2c(CC)c(Br)c3ccccn23)cc1OC` [Br/OCH3/H/C2H5/n-C4H9/3, 1-Bromo-2-ethyl-3-[4-(3-di-n-butylaminopropyl)-oxy-3-methoxy-benzoyl]-indolizine], the inhibition in vivo at 5 mg/kg [1, 5] was greater than 50% and the inhibition in vivo at 5 mg/kg [2, 5] was greater than 50%.

With `CCCN(CCC)CCCOc1ccc(C(=O)c2c(C)c(Br)c3ccccn23)cc1OC` [Br/OCH3/H/CH3/n-C3H7/3, 1-Bromo-2-methyl-3-[4-(3-di-n-propylaminopropyl)-oxy-3-methoxy-benzoyl]-indolizine] the inhibition in vivo at 7.5 mg/kg ([1]; Canis lupus familiaris, iv) was greater than 50% and the inhibition in vivo at 7.5 mg/kg ([2]; Canis lupus familiaris, iv) was greater than 50%.

Compound `CCCCN(CCCC)CCCOc1ccc(C(=O)c2c(C)c(Br)c3ccccn23)cc1OC` [Br/OCH3/H/CH3/n-C4H9/3, 1-Bromo-2-methyl-3-[4-(3-di-n-butylaminopropyl)-oxy-3-methoxy-benzoyl]-indolizine] has an inhibition in vivo at 7 mg/kg [1, 6] greater than 50% and an inhibition in vivo at 7 mg/kg [2, 6] greater than 50%.

For `CCCCN(CCCC)CCCOc1ccc(C(=O)c2c(CC)c(C)c3ccccn23)cc1Br` [CH3/Br/H/C2H5/n-C4H9/3, 1-Methyl-2-ethyl-3-[4-(3-di-n-butylaminopropyl)-oxy-3-bromo-benzoyl]-indolizine], the inhibition in vivo at 2 mg/kg ([1]; Canis lupus familiaris, iv, dose 2 mg/kg i.v.) was greater than 50% and the Anti-α effect ([2]; dose 2 mg/kg i.v.) was “+++”.

Compound `CCCCN(CCCC)CCCOc1ccc(C(=O)c2c(C)c(C)c3ccccn23)cc1Br` [CH3/Br/H/CH3/n-C4H9/3, 1,2-Dimethyl-3-[4-(3-di-n-butylaminopropyl)-oxy-3-bromo-benzoyl]-indolizine] has an inhibition in vivo at 10 mg/kg [1, 3] greater than 50% and an inhibition in vivo at 10 mg/kg [2, 3] greater than 50%.

For `CCCCN(CCCC)CCCOc1ccc(C(=O)c2c(-c3ccccc3)c(C)c3ccccn23)cc1Br` [CH3/Br/H/drawing 45/n-C4H9/3, 1-Methyl-2-phenyl-3-[4-(3-di-n-butylaminopropyl)-oxy-3-bromo-benzoyl]-indolizine], the inhibition in vivo at 6.2 mg/kg ([1]; Canis lupus familiaris, iv, dose 6.2 mg/kg i.v.) was greater than 50% and the Anti-α effect ([2]; dose 6.2 mg/kg i.v.) was “+++”.

Compound `CCCN(CCC)CCCOc1ccc(C(=O)c2c(-c3ccccc3)c(C)c3ccccn23)cc1Br` [CH3/Br/H/drawing 46/n-C3H7/3, 1-Methyl-2-phenyl-3-[4-(3-di-n-propylaminopropyl)-oxy-3-bromo-benzoyl]-indolizine] has an inhibition in vivo at 5 mg/kg [1, 5] greater than 50% and an inhibition in vivo at 5 mg/kg [2, 5] greater than 50%.

For `CCCCN(CCCC)CCCOc1ccc(C(=O)c2c(CCC)c(C)c3ccccn23)cc1Br` [CH3/Br/H/n-C3H7/n-C4H9/3, 1-Methyl-2-n-propyl-3-[4-(3-di-n-butylaminopropyl)-oxy-3-bromo-benzoyl]-indolizine], the Anti-β effect ([1]; dose 10 mg/kg i.v.) was “+++” and the Anti-α effect ([2]; dose 10 mg/kg i.v.) was “+++”.

`CCCCc1c(C)c2ccccn2c1C(=O)c1ccc(OCCCN(CCCC)CCCC)c(Br)c1` [CH3/Br/H/n-C4H9/n-C4H9/3, 1-Methyl-2-n-butyl-3-[4-(3-di-n-butylaminopropyl)-oxy-3-bromo-benzoyl]-indolizine] showed an inhibition in vivo at 7.5 mg/kg ([1]; Canis lupus familiaris, iv) greater than 50% and an inhibition in vivo at 7.5 mg/kg ([2]; Canis lupus familiaris, iv) greater than 50%.

With `CCCCN(CCCC)CCCOc1ccc(C(=O)c2c(-c3ccccc3)c(C)c3ccccn23)cc1` [CH3/H/H/drawing 47/n-C4H9/3, 1-Methyl-2-phenyl-3-[4-(3-di-n-butylaminopropyl)-oxy-benzoyl]-indolizine] the Anti-β effect ([1]; dose 6.3 mg/kg i.v.) was “+++” and the Anti-α effect ([2]; dose 6.3 mg/kg i.v.) was “+++”.

With `CCCN(CCC)CCCOc1ccc(C(=O)c2c(-c3ccccc3)c(C)c3ccccn23)cc1` [CH3/H/H/drawing 48/n-C3H7/3, 1-Methyl-2-phenyl-3-[4-(3-di-n-propylaminopropyl)-oxy-benzoyl]-indolizine] the Anti-β effect ([1]; dose 5 mg/kg i.v.) was “+++” and the Anti-α effect ([2]; dose 5 mg/kg i.v.) was “+++”.

Work on `CCCN(CCC)CCCOc1c(Br)cc(C(=O)c2c(-c3ccccc3)c(Cl)c3ccccn23)cc1Br` [Cl/Br/Br/drawing 38/n-C3H7/3, 1-Chloro-2-phenyl-3-[4-(3-di-n-propylaminopropyl)-oxy-3,5-dibromo-benzoyl]-indolizine] yielded an inhibition in vivo at 10 mg/kg [1, 3] of less than 50% and an inhibition in vivo at 10 mg/kg [2, 3] of less than 50%.

With `CCCCN(CCCC)CCCOc1ccc(C(=O)c2c(CC)c(Cl)c3ccccn23)cc1Br` [Cl/Br/H/C2H5/n-C4H9/3, 1-Chloro-2-ethyl-3-[4-(3-di-n-butylaminopropyl)-oxy-3-bromo-benzoyl]-indolizine] the Anti-β effect ([1]; dose 10 mg/kg i.v.) was “+++” and the Anti-α effect ([2]; dose 10 mg/kg i.v.) was “+++”.

`CCCN(CCC)CCCOc1c(Cl)cc(C(=O)c2c(CC)c(Cl)c3ccccn23)cc1Cl` [Cl/Cl/Cl/C2H5/n-C3H7/3, 1-Chloro-2-ethyl-3-[4-(3-di-n-propylaminopropyl)-oxy-3,5-dichloro-benzoyl]-indolizine] showed an inhibition in vivo at 10 mg/kg [1, 3] greater than 50% and an inhibition in vivo at 10 mg/kg [2, 3] greater than 50%.

In the case of `CCCCN(CCCC)CCCOc1c(Cl)cc(C(=O)c2c(-c3ccccc3)c(Cl)c3ccccn23)cc1Cl` [Cl/Cl/Cl/drawing 37/n-C4H9/3, 1-Chloro-2-phenyl-3-[4-(3-di-n-butylaminopropyl)-oxy-3,5-dichloro-benzoyl]-indolizine], the inhibition in vivo at 10 mg/kg [1, 3] is reported as greater than 50% and the Anti-α effect ([2]; dose 10 mg/kg i.v.) is reported as “+++”.

With `CCCN(CCC)CCCOc1ccc(C(=O)c2c(-c3cccc(Br)c3)c(Cl)c3ccccn23)cc1Cl` [Cl/Cl/H/drawing 33/n-C3H7/3, 1-Chloro-2-(3-bromo-phenyl)-3-[4-(3-di-n-propylaminopropyl)-oxy-3-chloro-benzoyl]-indolizine] the inhibition in vivo at 8 mg/kg ([1]; Canis lupus familiaris, iv, dose 8 mg/kg i.v.) was greater than 50% and the Anti-α effect ([2]; dose 8 mg/kg i.v.) was “+++”.

With `CCCCN(CCCC)CCCOc1ccc(C(=O)c2c(-c3ccc(Cl)cc3)c(Cl)c3ccccn23)cc1` [Cl/H/H/drawing 34/n-C4H9/3] the inhibition in vivo at 10 mg/kg [1, 3] was greater than 50% and the Anti-α effect ([2]; dose 10 mg/kg i.v.) was “+++”.

`CCCN(CCC)CCCOc1ccc(C(=O)c2c(-c3ccc(Cl)cc3)c(Cl)c3ccccn23)cc1` [Cl/H/H/drawing 35/n-C3H7/3] gave an inhibition in vivo at 5 mg/kg [1, 5] of less than 50% and an inhibition in vivo at 5 mg/kg [2, 5] greater than 50%.

With `CCCCN(CCCC)CCCOc1ccc(C(=O)c2c(-c3ccccc3)c(Cl)c3ccccn23)cc1` [Cl/H/H/drawing 36/n-C4H9/3] the Anti-β effect ([1]; dose 5 mg/kg i.v.) was “+++” and the Anti-α effect ([2]; dose 5 mg/kg i.v.) was “+++”.
